Where two headings read alike, the source gives them in different places.
How the values were obtained:
Assay type in all cases: cell-based
[1] = target: T1, hGLP1R (Homo sapiens, UniProt P43220); experiment: hGLP1R CreLuc reporter gene assay in 0.5% and 100% plasma; conditions: CreLuc reporter gene assay, 0.5% human plasma; read-out: hGLP1R 0.5% hP
T1 construct: expressed in transfected cells; host or cells: HEK-293 cells carrying a CRE-luciferase reporter gene
Method in brief: (§1)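 Agonist EC50s came from 8-concentration curves over four decades, fitted by non-linear variable-slope regression of CRE-driven luciferase luminescence. Cells were exposed 4 h at 37 °C, in buffer with 0.5% human plasma or in 100% plasma; GIPR was expressed in CHO cells, GLP-1R and NPY2R in HEK cells.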

[2] = target: T2, hGIPR (Homo sapiens, UniProt P48546); experiment: hGIPR CreLuc reporter gene assay in 0.5% and 100% plasma; conditions: CreLuc reporter gene assay
T2 construct: expressed in transfected cells; host or cells: CHO cells carrying a CRE-luciferase reporter gene
T2 sequence (P48546 22-466): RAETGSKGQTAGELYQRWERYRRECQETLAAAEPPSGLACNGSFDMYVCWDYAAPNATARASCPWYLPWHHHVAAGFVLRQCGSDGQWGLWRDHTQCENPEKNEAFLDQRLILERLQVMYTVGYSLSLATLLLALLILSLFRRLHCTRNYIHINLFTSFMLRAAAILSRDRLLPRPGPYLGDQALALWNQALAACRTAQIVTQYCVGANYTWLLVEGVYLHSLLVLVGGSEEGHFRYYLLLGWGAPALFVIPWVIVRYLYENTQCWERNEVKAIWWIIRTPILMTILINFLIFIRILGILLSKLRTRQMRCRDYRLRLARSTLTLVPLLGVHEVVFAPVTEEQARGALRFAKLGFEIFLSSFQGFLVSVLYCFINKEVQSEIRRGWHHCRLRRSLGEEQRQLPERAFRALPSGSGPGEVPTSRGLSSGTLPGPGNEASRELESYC
Method in brief: as §1

[3] = target: T3, hNPY2R (Homo sapiens, UniProt P49146); experiment: hNPY2R CreLuc reporter gene assay in 0.5% and 100% plasma; conditions: CreLuc reporter gene assay
T3 construct: expressed in transfected cells; host or cells: HEK-293 cells carrying a CRE-luciferase reporter gene
T3 sequence (P49146 1-381): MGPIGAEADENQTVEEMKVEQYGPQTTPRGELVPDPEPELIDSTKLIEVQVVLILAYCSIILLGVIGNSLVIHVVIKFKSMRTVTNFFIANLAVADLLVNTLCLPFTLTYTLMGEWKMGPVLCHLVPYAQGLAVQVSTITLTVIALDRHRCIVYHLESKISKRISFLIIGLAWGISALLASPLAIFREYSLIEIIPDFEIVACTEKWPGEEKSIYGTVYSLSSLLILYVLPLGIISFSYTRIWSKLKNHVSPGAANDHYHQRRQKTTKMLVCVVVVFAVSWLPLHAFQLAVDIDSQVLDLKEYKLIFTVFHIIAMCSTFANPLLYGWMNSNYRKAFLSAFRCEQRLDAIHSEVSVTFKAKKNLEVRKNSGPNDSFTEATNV
Method in brief: as §1

[4] = 0.5% human plasma, read-out: hGIPR 0.5% hP
[5] = 100% human plasma, read-out: hGIPR 100% hP
[6] = 100% human plasma, read-out: hNPY2R 100% hP

T1 sequence (P43220 24-463): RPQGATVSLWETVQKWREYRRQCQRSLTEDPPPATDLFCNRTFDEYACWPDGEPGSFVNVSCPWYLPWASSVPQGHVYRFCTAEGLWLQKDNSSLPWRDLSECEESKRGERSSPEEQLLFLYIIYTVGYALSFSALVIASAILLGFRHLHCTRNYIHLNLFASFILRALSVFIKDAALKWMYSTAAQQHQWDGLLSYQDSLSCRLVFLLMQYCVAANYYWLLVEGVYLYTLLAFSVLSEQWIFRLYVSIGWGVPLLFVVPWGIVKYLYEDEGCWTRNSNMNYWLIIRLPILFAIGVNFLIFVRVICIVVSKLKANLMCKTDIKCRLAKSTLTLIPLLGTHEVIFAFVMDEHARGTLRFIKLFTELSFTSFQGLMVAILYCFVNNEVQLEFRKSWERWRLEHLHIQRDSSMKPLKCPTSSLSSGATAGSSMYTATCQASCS

| EC50 [1] [nM] | EC50 [2, 4] [nM] | EC50 [2, 5] [nM] | EC50 ([3]; 0.5% human plasma, read-out: hNPY2R 0.5% hP) [nM] | EC50 [3, 6] [nM] | SMILES |
| --- | --- | --- | --- | --- | --- |
| 0.08 | 0.13 | 1.06 | 13.3 | 56.3 | CC[C@H](C)[C@H](NC(=O)[C@H](CC(C)C)NC(=O)[C@H](Cc1c[nH]c2ccccc12)NC(=O)[C@H](CCC(N)=O)NC(=O)[C@@H](NC(=O)[C@H](Cc1ccccc1)NC(=O)[C@H](C)NC(=O)C(C)(C)NC(=O)[C@H](CCC(N)=O)NC(=O)[C@H](C)NC(=O)[C@H](CCC(N)=O)NC(=O)[C@H](CCC(=O)O)NC(=O)[C@H](CCC(=O)O)NC(=O)[C@H](CC(C)C)NC(=O)C(C)(C)NC(=O)[C@@H](NC(=O)[C@H](CO)NC(=O)[C@H](Cc1ccc(O)cc1)NC(=O)[C@H](CC(=O)O)NC(=O)[C@H](CO)NC(=O)[C@@H](NC(=O)[C@H](Cc1ccccc1)NC(=O)[C@@H](NC(=O)CNC(=O)[C@H](CCC(=O)O)NC(=O)C(C)(C)NC(=O)[C@@H](N)Cc1ccc(O)cc1)[C@@H](C)O)[C@@H](C)O)[C@@H](C)CC)C(C)C)C(=O)N[C@@H](CCCCNC(=O)[C@@H](N)CCCCNC(=O)CC[C@H](NC(=O)CC[C@H](NC(=O)CC[C@H](NC(=O)[C@H](CCC(=O)O)NC(=O)CC[C@H](NC(=O)CC[C@H](NC(=O)CCCCCCCCCCCCCCCCCCC(=O)O)C(=O)O)C(=O)O)C(=O)O)C(=O)O)C(=O)O)C(=O)NCC(=O)NCC(=O)N1CCC[C@H]1C(=O)N[C@@H](CO)C(=O)N[C@@H](CO)C(=O)NCC(=O)N[C@@H](C)C(=O)N[C@@H](CO)C(=O)N[C@@H](CC(C)C)C(=O)N[C@@H](CCCNC(=N)N)C(=O)N[C@@H](Cc1c[nH]cn1)C(=O)N[C@@H](Cc1ccc(O)cc1)C(=O)N[C@@H](Cc1ccc(O)cc1)C(=O)N[C@@H](CC(N)=O)C(=O)N[C@@H](Cc1c[nH]c2ccccc12)C(=O)N[C@@H](CC(C)C)C(=O)N[C@H](C(=O)N[C@@H](CCCNC(=N)N)C(=O)N[C@@H](CCC(N)=O)C(=O)N[C@@H](CCCNC(=N)N)C(=O)N[C@@H](Cc1ccc(O)cc1)C(N)=O)[C@@H](C)O [Compound 30, Y-Aib-E-G-T-F-T-S-D-Y-S-I-Aib-L-E-E-Q-A-Q-Aib-A-F-V-Q-W-L-I-K(1,3)-GGPSSGASLRHYYNWLTRQRY-NH2.C20DA-gGlu-gGlu-Glu-gGlu-gGlu-gGlu-eLys(1,2)] |
| 0.13 | 0.23 | 1.43 |  | 35.2 | CC[C@H](C)[C@H](NC(=O)[C@H](CC(C)C)NC(=O)[C@H](Cc1c[nH]c2ccccc12)NC(=O)[C@H](CCC(=O)O)NC(=O)[C@@H](NC(=O)[C@H](Cc1ccccc1)NC(=O)[C@H](C)NC(=O)C(C)(C)NC(=O)[C@H](CCC(N)=O)NC(=O)[C@H](C)NC(=O)[C@H](CCC(N)=O)NC(=O)[C@H](CCCCN)NC(=O)[C@H](CCC(=O)O)NC(=O)[C@H](CC(C)C)NC(=O)C(C)(C)NC(=O)[C@@H](NC(=O)[C@H](CO)NC(=O)[C@H](Cc1ccc(O)cc1)NC(=O)[C@H](CC(=O)O)NC(=O)[C@H](CO)NC(=O)[C@@H](NC(=O)[C@H](Cc1ccccc1)NC(=O)[C@@H](NC(=O)CNC(=O)[C@H](CCC(=O)O)NC(=O)C(C)(C)NC(=O)[C@@H](N)Cc1ccc(O)cc1)[C@@H](C)O)[C@@H](C)O)[C@@H](C)CC)C(C)C)C(=O)N[C@@H](CCCCNC(=O)[C@@H](N)CCCCNC(=O)CC[C@H](NC(=O)CC[C@H](NC(=O)CC[C@H](NC(=O)CC[C@H](NC(=O)CC[C@H](NC(=O)CC[C@H](NC(=O)CCCCCCCCCCCCCCCCCCC(=O)O)C(=O)O)C(=O)O)C(=O)O)C(=O)O)C(=O)O)C(=O)O)C(=O)NCC(=O)NCC(=O)N1CCC[C@H]1C(=O)N[C@@H](CO)C(=O)N[C@@H](CO)C(=O)NCC(=O)N[C@@H](CCC(N)=O)C(=O)N[C@@H](CO)C(=O)N[C@@H](CC(C)C)C(=O)N[C@@H](CCCNC(=N)N)C(=O)N[C@@H](Cc1c[nH]cn1)C(=O)N[C@@H](Cc1ccc(O)cc1)C(=O)N[C@@H](Cc1ccc(O)cc1)C(=O)N[C@@H](CC(N)=O)C(=O)N[C@@H](Cc1c[nH]c2ccccc12)C(=O)N[C@@H](CC(C)C)C(=O)N[C@H](C(=O)N[C@@H](CCCNC(=N)N)C(=O)N[C@@H](CCC(N)=O)C(=O)N[C@@H](CCCNC(=N)N)C(=O)N[C@@H](Cc1ccc(O)cc1)C(N)=O)[C@@H](C)O [Compound 84, Y-Aib-E-G-T-F-T-S-D-Y-S-I-Aib-L-E-K-Q-A-Q-Aib-A-F-V-E-W-L-I-K(1,3)-GGPSSGQSLRHYYNWLTRQRY-NH2.C20DA-gGlu-gGlu-gGlu-gGlu-gGlu-gGlu-eLys(1,2)] |
| 0.25 | 0.48 | 1.61 |  | 53.1 | CC[C@H](C)[C@H](NC(=O)[C@H](CC(C)C)NC(=O)[C@H](Cc1c[nH]c2ccccc12)NC(=O)[C@H](CCC(=O)O)NC(=O)[C@@H](NC(=O)[C@H](Cc1ccccc1)NC(=O)[C@H](C)NC(=O)C(C)(C)NC(=O)[C@H](CCC(N)=O)NC(=O)[C@H](C)NC(=O)[C@H](CCC(N)=O)NC(=O)[C@H](CCCCN)NC(=O)[C@H](CCC(=O)O)NC(=O)[C@H](CC(C)C)NC(=O)C(C)(C)NC(=O)[C@@H](NC(=O)[C@H](CO)NC(=O)[C@H](Cc1ccc(O)cc1)NC(=O)[C@H](CC(=O)O)NC(=O)[C@H](CO)NC(=O)[C@@H](NC(=O)[C@H](Cc1ccccc1)NC(=O)[C@@H](NC(=O)CNC(=O)[C@H](CCC(=O)O)NC(=O)C(C)(C)NC(=O)[C@@H](N)Cc1ccc(O)cc1)[C@@H](C)O)[C@@H](C)O)[C@@H](C)CC)C(C)C)C(=O)N[C@@H](CCCCNC(=O)[C@@H](N)CCCCNC(=O)CC[C@H](NC(=O)CC[C@H](NC(=O)CC[C@H](NC(=O)CC[C@H](NC(=O)CC[C@H](NC(=O)CC[C@H](NC(=O)CCCCCCCCCCCCCCCCCCC(=O)O)C(=O)O)C(=O)O)C(=O)O)C(=O)O)C(=O)O)C(=O)O)C(=O)NCC(=O)NCC(=O)N1CCC[C@H]1C(=O)N[C@@H](CO)C(=O)N[C@@H](CO)C(=O)NCC(=O)N[C@@H](C)C(=O)N[C@@H](CO)C(=O)N[C@@H](CC(C)C)C(=O)N[C@@H](CCCNC(=N)N)C(=O)N[C@@H](Cc1c[nH]cn1)C(=O)N[C@@H](Cc1ccc(O)cc1)C(=O)N[C@@H](CC(C)C)C(=O)N[C@@H](CC(N)=O)C(=O)N[C@@H](Cc1c[nH]c2ccccc12)C(=O)N[C@@H](CC(C)C)C(=O)N[C@H](C(=O)N[C@@H](CCCNC(=N)N)C(=O)N[C@@H](CCC(N)=O)C(=O)N[C@@H](CCCNC(=N)N)C(=O)N[C@@H](Cc1ccc(O)cc1)C(N)=O)[C@@H](C)O [Compound 86, Y-Aib-E-G-T-F-T-S-D-Y-S-I-Aib-L-E-K-Q-A-Q-Aib-A-F-V-E-W-L-I-K(1,3)-GGPSSGASLRHYLNWLTRQRY-NH2.C20DA-gGlu-gGlu-gGlu-gGlu-gGlu-gGlu-eLys(1,2)] |

— patent US20240247080A1, “GLP1/GIP/NPY2 RECEPTOR TRIPLE AGONISTS” (Boehringer Ingelheim International GmbH, priority 2022, published 2024)
